In US7084165B2, “Monoamine reuptake inhibitors for treatment of CNS disorders” (Pfizer Inc, priority 1999, dated 2006):
Structures can show the parent of a compound that is named as a salt.

melting point [°C] | SMILES
147 to 149 | CNC(C)c1ccccc1Oc1ccc(Cl)cc1 (stereo not shown) (as salt: HCl)
130 to 133 | CC(c1ccccc1Oc1ccc(Cl)c(Cl)c1)N(C)C (stereo not shown) (as salt: HCl)
143 to 145 | CNCc1cc(OC)c(OC)cc1Oc1ccc(Cl)c(Cl)c1 (as salt: HCl)
206 to 210 | CNCc1cc(Br)ccc1Oc1ccc(Cl)c(Cl)c1 (as salt: HCl)
196 to 198 | Cc1ccc(Oc2ccc(Cl)c(Cl)c2)c(CN(C)C)c1 (as salt: HCl)
132 to 133 | CNCc1ccc(Cl)cc1Oc1ccc(Cl)c(Cl)c1
185 to 189 | CNCc1ccc(Br)cc1Oc1ccc(Cl)c(Cl)c1 (as salt: HCl)
127 | CNC(C)c1cc(F)ccc1Oc1ccc(Cl)c(Cl)c1 (stereo not shown)
164 to 166 | CNCc1ccc(C(F)(F)F)cc1Oc1ccc(Cl)c(Cl)c1
190 to 194 | NCc1cc(F)ccc1Oc1ccc(Cl)c(Cl)c1 (as salt: hydrochloride) [Example 57, 2-(3,4-DICHLOROPHENOXY)-5-FLUORO-BENZYLAMINE]
127 to 128 | CN(C)Cc1cc(C(F)(F)F)ccc1Oc1ccc(Cl)c(Cl)c1.O=C(O)/C=C\C(=O)O
171 to 173 | Cl.Fc1ccc(Oc2ccc(Cl)c(Cl)c2)c(C2CCCN2)c1 (stereo not shown)
199 to 202 | CC(=O)Nc1ccc(Oc2ccc(Cl)c(Cl)c2)c(CN(C)C)c1.Cl
174 to 175 | CN(C)Cc1cc(F)ccc1Oc1ccc(Cl)c(Cl)c1 (as salt: HCl) [Example 13, [2-(3,4-Dichlorophenoxy)-5-fluorobenzyl]-dimethylamine]
140 to 141 | CNCc1cc(OC)ccc1Oc1ccc(Cl)c(Cl)c1 (as salt: HCl) (hydrate or solvate)
208 to 209 | CNCc1cc(F)ccc1Oc1ccc(Cl)cc1 (as salt: HCl)
